Laboratory results taken from patent US10544143B2, “4-azaindole compounds” (BRISTOL-MYERS SQUIBB COMPANY, priority 2017, dated 2020).

Legend:
[1] = biological target: human TLR7 (Homo sapiens (Human), UniProt Q9NYK1); test: TLR7 inhibition reporter assay (HEK-Blue SEAP); assay type: cell-based; details: HEK-Blue cells overexpressing human TLR7, gardiquimod 7.5 μM stimulation, SEAP reporter
[2] = biological target: human TLR8 (Homo sapiens (Human), UniProt Q9NR97); test: TLR8 inhibition reporter assay (HEK-Blue SEAP); details: read-out: TLR8 IC50; HEK-Blue cells overexpressing human TLR8, R848 15.9 μM stimulation, SEAP reporter;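 further: SEAP driven by IFN-β minimal promoter carrying NF-κB and AP-1 sites, compounds dosed 0.05 nM to 50 µM for 22 h, inhibition scaled between agonist-plus-DMSO and reference-inhibitor wells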
Sequence of human TLR8 (Q9NR97 27-1041): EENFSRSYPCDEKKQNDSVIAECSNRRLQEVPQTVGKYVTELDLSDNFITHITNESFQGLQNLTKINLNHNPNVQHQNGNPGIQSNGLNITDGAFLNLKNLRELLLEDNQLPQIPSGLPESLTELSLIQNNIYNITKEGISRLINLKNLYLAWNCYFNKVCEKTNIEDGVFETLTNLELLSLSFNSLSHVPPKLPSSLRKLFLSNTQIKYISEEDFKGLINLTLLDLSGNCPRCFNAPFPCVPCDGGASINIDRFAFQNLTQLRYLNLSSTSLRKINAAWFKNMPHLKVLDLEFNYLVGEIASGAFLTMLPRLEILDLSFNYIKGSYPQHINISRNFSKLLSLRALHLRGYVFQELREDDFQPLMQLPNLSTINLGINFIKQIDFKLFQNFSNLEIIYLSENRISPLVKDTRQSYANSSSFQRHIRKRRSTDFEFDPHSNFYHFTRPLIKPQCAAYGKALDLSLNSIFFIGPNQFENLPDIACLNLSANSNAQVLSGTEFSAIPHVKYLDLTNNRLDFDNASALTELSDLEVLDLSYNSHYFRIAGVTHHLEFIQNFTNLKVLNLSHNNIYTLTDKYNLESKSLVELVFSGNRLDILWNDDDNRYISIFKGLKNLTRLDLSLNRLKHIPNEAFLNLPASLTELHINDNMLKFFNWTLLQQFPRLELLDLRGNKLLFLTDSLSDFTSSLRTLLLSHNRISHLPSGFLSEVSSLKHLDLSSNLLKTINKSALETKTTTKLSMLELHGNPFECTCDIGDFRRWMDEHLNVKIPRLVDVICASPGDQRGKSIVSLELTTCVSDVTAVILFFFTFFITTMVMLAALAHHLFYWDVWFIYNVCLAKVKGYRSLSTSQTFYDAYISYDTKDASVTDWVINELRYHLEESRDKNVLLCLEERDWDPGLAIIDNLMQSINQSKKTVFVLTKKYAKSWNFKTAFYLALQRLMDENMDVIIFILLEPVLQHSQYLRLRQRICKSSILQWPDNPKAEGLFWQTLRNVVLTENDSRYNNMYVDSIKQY

[3] = biological target: human TLR9 (Homo sapiens (Human), UniProt Q9NR96); test: TLR9 inhibition reporter assay (HEK-Blue SEAP); details: read-out: TLR9 IC50; HEK-Blue cells overexpressing human TLR9, ODN2006 5 nM stimulation, SEAP reporter;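 further: SEAP driven by an IFN-β minimal promoter with NF-κB and AP-1 sites, read after 22 h, compounds dosed 0.05 nM–50 µM, inhibition scaled between agonist plus DMSO and reference-inhibitor wells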
Sequence of human TLR9 (Q9NR96 26-1032): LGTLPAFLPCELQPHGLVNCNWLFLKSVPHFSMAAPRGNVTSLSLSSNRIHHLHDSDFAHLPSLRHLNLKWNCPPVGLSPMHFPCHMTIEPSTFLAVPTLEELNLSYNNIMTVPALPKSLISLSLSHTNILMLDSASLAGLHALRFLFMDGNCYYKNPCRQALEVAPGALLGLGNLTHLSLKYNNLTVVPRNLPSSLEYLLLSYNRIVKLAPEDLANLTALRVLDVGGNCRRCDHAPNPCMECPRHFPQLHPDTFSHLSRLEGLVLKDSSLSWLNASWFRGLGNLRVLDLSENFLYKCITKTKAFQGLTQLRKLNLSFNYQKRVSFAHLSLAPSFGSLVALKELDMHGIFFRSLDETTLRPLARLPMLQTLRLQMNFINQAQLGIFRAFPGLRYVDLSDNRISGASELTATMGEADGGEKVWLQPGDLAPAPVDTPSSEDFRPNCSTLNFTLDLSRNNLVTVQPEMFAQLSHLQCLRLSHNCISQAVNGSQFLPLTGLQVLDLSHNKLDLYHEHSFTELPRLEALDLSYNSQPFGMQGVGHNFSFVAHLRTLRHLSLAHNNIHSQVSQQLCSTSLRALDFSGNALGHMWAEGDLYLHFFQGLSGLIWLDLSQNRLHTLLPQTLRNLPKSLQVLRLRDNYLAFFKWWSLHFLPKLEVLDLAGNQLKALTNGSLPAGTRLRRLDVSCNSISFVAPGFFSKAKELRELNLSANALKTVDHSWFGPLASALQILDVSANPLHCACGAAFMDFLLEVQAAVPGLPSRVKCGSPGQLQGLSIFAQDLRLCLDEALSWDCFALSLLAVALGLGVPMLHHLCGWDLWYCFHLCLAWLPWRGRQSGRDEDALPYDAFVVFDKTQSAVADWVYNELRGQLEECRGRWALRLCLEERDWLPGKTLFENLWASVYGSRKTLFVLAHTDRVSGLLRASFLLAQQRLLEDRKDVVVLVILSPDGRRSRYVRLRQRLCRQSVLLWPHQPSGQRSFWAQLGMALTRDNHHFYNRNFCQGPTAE

Sequence of human TLR7 (Q9NYK1 27-1049): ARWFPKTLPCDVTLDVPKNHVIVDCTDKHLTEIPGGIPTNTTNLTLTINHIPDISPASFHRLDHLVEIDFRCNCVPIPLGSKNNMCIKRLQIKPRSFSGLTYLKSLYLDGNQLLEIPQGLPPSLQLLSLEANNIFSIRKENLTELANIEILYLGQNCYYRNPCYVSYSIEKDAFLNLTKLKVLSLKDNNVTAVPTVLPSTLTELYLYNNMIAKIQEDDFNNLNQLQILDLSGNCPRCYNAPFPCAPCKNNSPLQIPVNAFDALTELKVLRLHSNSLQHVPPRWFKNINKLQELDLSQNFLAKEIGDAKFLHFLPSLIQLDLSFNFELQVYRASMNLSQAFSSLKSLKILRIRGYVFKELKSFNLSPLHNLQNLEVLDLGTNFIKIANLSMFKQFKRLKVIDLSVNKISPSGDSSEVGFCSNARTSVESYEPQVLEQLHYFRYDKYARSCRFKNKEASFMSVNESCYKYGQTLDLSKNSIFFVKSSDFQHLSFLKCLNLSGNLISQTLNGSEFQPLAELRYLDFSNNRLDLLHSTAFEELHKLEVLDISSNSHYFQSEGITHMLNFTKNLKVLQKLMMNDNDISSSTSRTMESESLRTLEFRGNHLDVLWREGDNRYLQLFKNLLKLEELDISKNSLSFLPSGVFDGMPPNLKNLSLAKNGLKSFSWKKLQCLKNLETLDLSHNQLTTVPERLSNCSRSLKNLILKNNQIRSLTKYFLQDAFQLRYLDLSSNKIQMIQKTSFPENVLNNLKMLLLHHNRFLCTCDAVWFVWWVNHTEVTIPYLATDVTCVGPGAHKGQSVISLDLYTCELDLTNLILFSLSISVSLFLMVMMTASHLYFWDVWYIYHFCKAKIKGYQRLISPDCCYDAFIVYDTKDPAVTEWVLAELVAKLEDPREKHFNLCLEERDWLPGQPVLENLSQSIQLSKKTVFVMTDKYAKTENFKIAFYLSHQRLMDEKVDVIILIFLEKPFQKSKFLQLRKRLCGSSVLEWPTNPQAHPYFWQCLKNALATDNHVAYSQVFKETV

IC50 [1] [nM] | IC50 [2] [nM] | IC50 [3] [nM] | SMILES
0.62 | 0.23 | 1990 | CC(C)c1c(-c2cn(C)c3ncccc23)[nH]c2ccc(N3CCC(NCCS(C)(=O)=O)CC3)nc12 [Example 53]
2.9 | 2.8 | 10400 | CC(C)c1c(-c2cn(C)c3ncccc23)[nH]c2ccc(N3CCC(N(CC(=O)N(C)C)CC(=O)N(C)C)CC3)nc12 [Example 54]
2.1 | 0.39 | 3340 | Cc1c(-c2[nH]c3ccc(N4CCC(N(C)C5CCOCC5)CC4)nc3c2C(C)C)cn2ncnc2c1C [Example 55]
2 | 1.1 | 6340 | Cc1c(-c2[nH]c3ccc(N4CCC(NCc5csnn5)CC4)nc3c2C(C)C)cn2ncnc2c1C [Example 56]
7.4 | 1.3 | 5070 | Cc1c(-c2[nH]c3ccc(N4CCC(NC5CCC5)CC4)nc3c2C(C)C)cn2ncnc2c1C [Example 57]
1.3 | 0.72 | 1970 | Cc1c(-c2[nH]c3ccc(N4CCC(N(C)CC5CC5)CC4)nc3c2C(C)C)cn2ncnc2c1C [Example 58]
1.3 | 1.1 | 2380 | Cc1c(-c2[nH]c3ccc(N4CCC(N(C)C5CCC5)CC4)nc3c2C(C)C)cn2ncnc2c1C [Example 59]
5.6 | 5.9 | 20200 | Cc1c(-c2[nH]c3ccc(N4CCC(N(C)Cc5ncccn5)CC4)nc3c2C(C)C)cn2ncnc2c1C [Example 60]
4.4 | 1.8 | 2410 | COc1ncnc(OC)c1CN(C)C1CCN(c2ccc3[nH]c(-c4cn5ncnc5c(C)c4C)c(C(C)C)c3n2)CC1 [Example 61]
3.8 | 1.5 | 11500 | Cc1c(-c2[nH]c3ccc(N4CCC(N(C)Cc5ccnn5C)CC4)nc3c2C(C)C)cn2ncnc2c1C [Example 62]
7.4 | 4 | 42400 | Cc1c(-c2[nH]c3ccc(N4CCC(N(C)Cc5ncnn5C)CC4)nc3c2C(C)C)cn2ncnc2c1C [Example 63]
3.8 | 1.6 | 5080 | Cc1ncc(CN(C)C2CCN(c3ccc4[nH]c(-c5cn6ncnc6c(C)c5C)c(C(C)C)c4n3)CC2)cn1 [Example 64]
1.9 | 1.3 | 25100 | Cc1c(-c2[nH]c3ccc(N4CCC(N(C)C5COC5)CC4)nc3c2C(C)C)cn2ncnc2c1C [Example 65]
1.4 | 0.98 | 3870 | CCN(C)C1CCN(c2ccc3[nH]c(-c4cn5ncnc5c(C)c4C)c(C(C)C)c3n2)CC1 [Example 66]
0.98 | 0.42 | 963 | COc1ncc(CN(C)C2CCN(c3ccc4[nH]c(-c5cn6ncnc6c(C)c5C)c(C(C)C)c4n3)CC2)cn1 [Example 67]
1.4 | 0.79 | 6300 | Cc1c(-c2[nH]c3ccc(N4CCC(N(C)Cc5cn(C)nn5)CC4)nc3c2C(C)C)cn2ncnc2c1C [Example 68]
1310 | 1310 | 25800 | COc1ncnc(OC)c1CNC1CCN(c2ccc3[nH]c(-c4cn5ncnc5c(C)c4C)c(C(C)C)c3n2)CC1 [Example 69]
2.3 | 1.2 | 2970 | CCN(CC)C1CCN(c2ccc3[nH]c(-c4cn5ncnc5c(C)c4C)c(C(C)C)c3n2)CC1 [Example 70]
99 | 31 | 3900 | COc1ncnc(OC)c1CN(Cc1c(OC)ncnc1OC)C1CCN(c2ccc3[nH]c(-c4cn5ncnc5c(C)c4C)c(C(C)C)c3n2)CC1 [Example 71]
2.9 | 0.9 | 3420 | COc1ncc(CNC2CCN(c3ccc4[nH]c(-c5cn6ncnc6c(C)c5C)c(C(C)C)c4n3)CC2)cn1 [Example 72]
29 | 5.7 | 24900 | Cc1c(-c2[nH]c3ccc(N4CCC(N(Cc5cn(C)nn5)Cc5cn(C)nn5)CC4)nc3c2C(C)C)cn2ncnc2c1C [Example 73]
2470 | 2560 | > 50000 | Cc1nccc(CN(Cc2ccnc(C)n2)C2CCN(c3ccc4[nH]c(-c5cn6ncnc6c(C)c5C)c(C(C)C)c4n3)CC2)n1 [Example 74]
18 | 9.8 | > 50000 | COc1ncc(CN(Cc2cnc(OC)nc2)C2CCN(c3ccc4[nH]c(-c5cn6ncnc6c(C)c5C)c(C(C)C)c4n3)CC2)cn1 [Example 75]
34 | 15 | > 50000 | Cc1c(-c2[nH]c3ccc(N4CCC(N(Cc5ncnn5C)Cc5ncnn5C)CC4)nc3c2C(C)C)cn2ncnc2c1C [Example 76]
4.8 | 2 | 11600 | Cc1c(-c2[nH]c3ccc(N4CCC(N(C)Cc5csnn5)CC4)nc3c2C(C)C)cn2ncnc2c1C [Example 77]
3.7 | 10 | 3170 | Cc1c(-c2[nH]c3ccc(N4CCC(N(C)Cc5ncccn5)CC4)nc3c2C(C)C)cn2ncnc2c1C [Example 78]

IC50 [1] [nM] | IC50 [2] [nM] | IC50 [3] [nM] | SMILES
373 | 355 | 9720 | CC(C)c1c(-c2cc(CO)c3ncnn3c2)[nH]c2ccc(N3CCC(N)CC3)nc12 [Example 79]
1.3 | 1.6 | 4560 | CC(C)c1c(-c2cc(CO)c3ncnn3c2)[nH]c2ccc(N3CCC(NC4CCOCC4)CC3)nc12 [Example 80]
1.3 | 0.95 | 20100 | CC(C)c1c(-c2cc(CO)c3ncnn3c2)[nH]c2ccc(N3CCC(NC4COC4)CC3)nc12 [Example 81]
0.77 | 0.41 | 6380 | CC(C)c1c(-c2cc(CO)c3ncnn3c2)[nH]c2ccc(N3CCC(NCC4(C)COC4)CC3)nc12 [Example 82]
3.6 | 6.9 | 5440 | CC(C)c1c(-c2cc(CO)c3ncnn3c2)[nH]c2ccc(N3CCC(NCC#N)CC3)nc12 [Example 83]
2200 | > 3120 | > 50000 | CC(C)c1c(-c2cc(CO)c3ncnn3c2)[nH]c2ccc(N3CCC(NCC(=O)N(C)C)CC3)nc12 [Example 84]
1.8 | 5.8 | 5180 | CC(C)c1c(-c2cc(CO)c3ncnn3c2)[nH]c2ccc(N3CCC(NCC(=O)N(C)C)CC3)nc12 [Example 85]
7.5 | 2.9 | > 50000 | Cc1c(-c2[nH]c3ccc(N4CCCC(NC5COC5)C4)nc3c2C(C)C)cn2ncnc2c1C (stereo not drawn) [Example 86]
3.5 | 0.58 | > 50000 | Cc1c(-c2[nH]c3ccc(N4CCCC(NCC5(S(C)(=O)=O)CC5)C4)nc3c2C(C)C)cn2ncnc2c1C (stereo not drawn) [Example 87]
68 | 91 | 3600 | Cc1cc(-c2[nH]c3ccc(N4CCNCC4)nc3c2C(C)C)cn2ncnc12 [Example 88]
0.51 | 0.59 | 3260 | COc1cc(-c2[nH]c3ccc(N4CCNCC4)nc3c2C(C)C)cn2ncnc12 [Example 89]
0.57 | 4.2 | 5000 | COc1cc(-c2[nH]c3ccc(N4CCN(C(=O)CN(C)C)CC4)nc3c2C(C)C)cn2ncnc12 [Example 90]
0.68 | 0.53 | 6310 | COc1cc(-c2[nH]c3ccc(N4CCN(C)CC4)nc3c2C(C)C)cn2ncnc12 [Example 91]
0.87 | 0.78 | 3990 | COc1cc(-c2[nH]c3ccc(N4CCN(C(C)C)CC4)nc3c2C(C)C)cn2ncnc12 [Example 92]
5.3 | 7.2 | 35000 | COc1cc(-c2[nH]c3ccc(N4CCN(C5COC5)CC4)nc3c2C(C)C)cn2ncnc12 [Example 93]
1 | 1.4 | 9350 | COc1cc(-c2[nH]c3ccc(N4CCN(CC#N)CC4)nc3c2C(C)C)cn2ncnc12 [Example 94]
4.9 | 3.6 | > 50000 | COc1cc(-c2[nH]c3ccc(N4CCN(CCS(C)(=O)=O)CC4)nc3c2C(C)C)cn2ncnc12 [Example 95]
1.5 | 0.28 | 9430 | Cc1c(-c2[nH]c3ccc(N4CCN(C)CC4)nc3c2C(C)C)cn2ncnc2c1C [Example 96, 6-(3-isopropyl-5-(4-methylpiperazin-1-yl)-1H-pyrrolo[3,2-b]pyridin-2-yl)-7,8-dimethyl-[1,2,4]triazolo[1,5-a]pyridine]
28 | 4.1 | > 50000 | Cc1c(-c2[nH]c3ccc(N4CCN(CC5(C)COC5)CC4)nc3c2C(C)C)cn2ncnc2c1C [Example 97]
0.74 | 0.72 | 5230 | Cc1c(-c2[nH]c3ccc(N4CCN(C(=O)CCN(C)C)CC4)nc3c2C(C)C)cn2ncnc2c1C [Example 98]
0.51 | 2.9 | 4300 | COc1cc(-c2[nH]c3ccc(N4CCN(C(=O)CCN(C)C)CC4)nc3c2C(C)C)cn2ncnc12 [Example 99]
3.2 | 0.55 | 6150 | Cc1c(-c2[nH]c3ccc(N4CCN(C(C)C)CC4)nc3c2C(C)C)cn2ncnc2c1C [Example 100]
3.7 | 0.25 | 6400 | Cc1c(-c2[nH]c3ccc(N4CCN(C5CCOCC5)CC4)nc3c2C(C)C)cn2ncnc2c1C [Example 101]
12 | 5.1 | > 50000 | COc1cc(-c2[nH]c3ccc(N4CCN(CC5(C)COC5)CC4)nc3c2C(C)C)cn2ncnc12 [Example 102]
2.3 | 0.75 | 4160 | COc1cc(-c2[nH]c3ccc(N4CCN(C5CCOCC5)CC4)nc3c2C(C)C)cn2ncnc12 [Example 104]
